{
  "source": "patent US20190054070A1",
  "about": "“Methods and Compositions for Regenerative Synaptogenesis” (priority 2017, published 2019)",
  "key": {"[1]": {"tested_on": "cultured hippocampal neurons", "test": "Dendritic spine morphology of GFP-Actin transfected neurons by confocal microscopy", "type": "cell-based, rat", "details": "for spine head width: untreated 0.753±0.038 μm; for spine length: untreated 1.819±0.064 μm; for spine density: untreated 4.58±0.43", "protocol": "(§1) Cultures of dissociated hippocampal neurons from embryonic day 18 rats were prepared as previously described (51). Cultured neurons at 10 days in vitro (DIV) were exposed to arginine N-methyltransferase inhibitor-1 (AMI-1; 2.5 or 10 μM, Enzo Life Sciences) in plating media minus additional glutamate for the indicated times.\n(§2) To identify the effects of genetic knock-down of CARM1 on dendritic morphology and synaptic clustering of synapsin, NR2B, and PSD-95, hippocampal neurons were first transfected with the construct pCAG-mGFP-Actin [a gift from Ryohei Yasuda (Addgene plasmid #21948)] at 7 DIV with Lipofectamine 2000 (Invitrogen) following the manufacturer's protocol. After a 2-day incubation, neurons were untreated or transduced with rat CARM1- or PRMT1-specific siRNA or scrambled control siRNA lentiviral particles (5×10^3 viral particles/μl, Santa Cruz) at a multiplicity of infection (MOI) of 4 to ensure efficient infection following the manufacturer's protocol, followed by overnight incubation. After a media change with plating media minus glutamate, cells were incubated for an additional 4 days, and then a portion of the cells was either lysed and used for total RNA isolation and RT-qPCR experiments, lysed and used for immunoblot analysis, or fixed for immunocytochemical analysis.\n(§3) Cultures neurons were treated as described above and then fixed in 2% paraformaldehyde/4% sucrose/PBS for 10 min at room temperature (RT) followed by methanol for 20 min at −20° C. The fixed neurons were incubated in preblock buffer (20 mM phosphate buffer, pH 7.4, 5% normal goat serum, 0.05% Triton X-100, and 450 mM NaCl) at 4° C. overnight with the following primary antibodies: mouse anti-CARM1 (1:200, Cell Signaling), rabbit anti-CARM1 (1:200, Cell Signaling), rabbit anti-NR2B (1:200, Millipore), mouse anti-NR2B (1:150, Thermo Fisher), mouse anti-PSD-95 (1:100, Cell Signaling), mouse anti-synapsin (1:200, Santa Cruz), or rabbit anti-synapsin (1:250, Millipore), followed by incubation with the appropriate secondary antibodies (Alexa 488-anti-rabbit or 546-anti-mouse; each at 1:1000, Invitrogen) in preblock buffer at RT for 1 hr. After immunostaining, the cells were mounted as previously described (50) and viewed on a Zeiss LSM 710 laser-scanning confocal microscope. Images were acquired under a 63× or 100× oil immersion objective lens and scanned for further analysis.\n(§4) Confocal microscope images for each treatment from each of 3 independent sets of experiments were imported into Image J (NIH) software. To determine the proportion of CARM1 signal that co-localizes with PSD-95 or synapsin, Image J (NIH) software was used with Just Another Colocalization (JACoP) plugin set. A Mander's coefficient was calculated and the average value (N=10) was further analyzed. Dendritic spine length (from dendritic shaft to the top of spine head) and dendritic spine width (diameter of the widest part of spine head) were measured and dendritic spine density (number of spines/10 μm of dendrite) was also counted. Dendritic spine shape (stubby, mushroom, or filopodium) was identified as described in previous research (5, 21). After measuring spine length (the distance from the base of the neck to the furthest point on the spine heads) and diameter of spine head and neck, the ratio from each spine was calculated and compared. […] Mushroom spines were judged if the diameter of the head was three times larger than the diameter of their necks. Stubby spines were judged if the diameter of the neck was similar to the total length of the spine."}, "HuD-mRNA binding": {"tested_on": "HuD-mRNA binding", "details": "hippocampal neurons in vitro; previous studies (ref. 22); cited from earlier work"}, "[2]": {"tested_on": "cultured hippocampal neurons", "test": "Synaptic clustering of NR2B, PSD-95 and synapsin by immunocytochemistry", "type": "cell-based, rat", "details": "10 μM for 4 days from 10 DIV; compared to untreated cells", "protocol": "as §1, §2, §3, §4"}, "[3]": {"details": "inhibitor treatment for 4 days, compared with untreated"}},
  "data": [
    {"smiles": "O=C(Nc1ccc2c([O-])cc(S(=O)(=O)[O-])cc2c1)Nc1ccc2c([O-])cc(S(=O)(=O)[O-])cc2c1.[Na+].[Na+].[Na+].[Na+]", "note": "[AMI-1, 7,7′-(carbonylbis(azanediyl))bis(4-oxidonaphthalene-2-sulfonate), sodium salt]", "values": [
      {"measurement": "spine head width", "setting": "[1]; 2.5 μM for 4 days from 10 DIV", "result": "0.899±0.052", "unit": "μm"},
      {"measurement": "spine length", "setting": "[1]; 2.5 μM for 4 days from 10 DIV", "result": "1.748±0.093", "unit": "μm"},
      {"measurement": "spine density", "setting": "[1]; 2.5 μM for 4 days from 10 DIV", "result": "4.49±0.54", "unit": "spines per 10 μm dendrite"},
      {"measurement": "spine head width", "setting": "[1]; 10 μM for 4 days from 10 DIV, P=0.0085", "result": "0.982±0.044", "unit": "μm"},
      {"measurement": "spine length", "setting": "[1]; 10 μM for 4 days from 10 DIV, not statistically significant", "result": "1.634±0.072", "unit": "μm"},
      {"measurement": "spine density", "setting": "[1]; 10 μM for 4 days from 10 DIV, no significant difference", "result": "5.54±0.62", "unit": "spines per 10 μm dendrite"},
      {"measurement": "proportion of filopodia-type, including thin-type, spines", "setting": "[1]; [3]", "result": "dramatic decrease"},
      {"measurement": "proportion of mushroom-type spines", "setting": "[1]; [3]", "result": "significantly increased"},
      {"measurement": "HuD-mRNA binding and the stability and expression of NTFs, including BDNF", "setting": "HuD-mRNA binding", "result": "increased"},
      {"measurement": "NR2B number of clusters", "setting": "[2]", "result": "increase"},
      {"measurement": "NR2B synaptic cluster size", "setting": "[2]", "result": "increase"},
      {"measurement": "PSD-95 number of clusters", "setting": "[2]", "result": "increase"},
      {"measurement": "PSD-95 synaptic cluster size", "setting": "[2]", "result": "increase"},
      {"measurement": "synapsin synaptic cluster number", "setting": "[2]", "result": "no difference"},
      {"measurement": "synapsin synaptic cluster size", "setting": "[2]", "result": "no difference"}
    ]}
  ]
}
